Consider 21 molecules from patent US10844052B2, “LLS compounds for treatment of cancer” (THE REGENTS OF THE UNIVERSITY OF CALIFORNIA, priority 2016, dated 2020).

The test system of assay [1] is 22RV1 prostate cancer cells. The assay can be described thus: Cell viability of prostate cancer 22RV1 cells after 72 hours treatment. The format is cell-based. The following applies: Homo sapiens.
Assay [2] concerns PC3 prostate cancer cells. The experiment in a line: Cell viability of prostate cancer PC3 cells after 72 hours treatment. The following applies: Homo sapiens; for viability at 2.5 µM: PC-3, 2.5 μM; for viability at 5 µM: PC-3, 5 μM; for viability at 10 µM: PC-3, 10 μM; for viability at 20 µM: PC-3, 20 μM. The format is cell-based. As to the method:
Effects of compounds LLS42-LLS80 on the viability of PC3 prostate cancer cells after 72 hours of treatment are shown in Table 2 below: […]

One may read the viability as a read-out of living cells in per cent, often relative to untreated cells. On to `NC(=O)CC(NCc1ccc(Cl)c(Cl)c1)c1ccc2c(c1)nc(-c1ccc(N(CCO)CCO)cc1)n2Cc1ccc(Br)cc1` (stereo not drawn) [LLS93, 3-(2-(4-(bis(2-hydroxyethyl)amino)phenyl)-1-(4-bromobenzyl)-1H-benzo[d]imidazol-5-yl)-3-((3,4-dichlorobenzyl)amino)propanamide], for which, in assay [1], the viability at 2.5 µM turned out to be 22%, the viability at 5 µM turned out to be 2% and the viability at 10 µM was 0%.

Turning to `CN(C)CCCOc1ccc(-c2nc3cc(C(CC(N)=O)NCc4ccc(Cl)c(Cl)c4)ccc3n2Cc2ccc(Cl)c(Cl)c2)cc1` (stereo not drawn) [LLS85, 3-(1-(3,4-dichlorobenzyl)-2-(4-(3-(dimethylamino)propoxy)phenyl)-1H-benzo[d]imidazol-5-yl)-3-((3,4-dichlorobenzyl)amino)propanamide], in assay [1], the viability at 2.5 µM stood at 65%, the viability at 5 µM was 1% and the viability at 10 µM is 0%.

With `NC(=O)CC(NCc1ccc(Cl)c(Cl)c1)c1ccc2c(c1)nc(-c1ccc(N(CCO)CCO)cc1)n2CCc1ccccn1` (stereo not drawn) [LLS108, 3-(2-(4-(bis(2-hydroxyethyl)amino)phenyl)-1-(2-(pyridin-2-yl)ethyl)-1H-benzo[d]imidazol-5-yl)-3-((3,4-dichlorobenzyl)amino)propanamide], in assay [1], the viability at 2.5 µM was found to be 89%, the viability at 5 µM worked out at 100% and the viability at 10 µM was determined as 101%.

For the molecule `NC(=O)CC(NCc1ccc(F)c(F)c1)c1ccc2c(c1)nc(-c1ccc(N(CCO)CCO)cc1)n2Cc1ccc(Cl)c(Cl)c1` (stereo not drawn) [LLS83, 3-(2-(4-(bis(2-hydroxyethyl)amino)phenyl)-1-(3,4-dichlorobenzyl)-1H-benzo[d]imidazol-5-yl)-3-((3,4-difluorobenzyl)amino)propanamide], in assay [1], the viability at 2.5 µM amounted to 20%, the viability at 5 µM is 1% and the viability at 10 µM was 0%.

In the case of `CN1CCN(c2ccc(-c3nc4cc(C(CC(N)=O)NCc5ccc(Cl)c(Cl)c5)ccc4n3Cc3ccc(Cl)c(Cl)c3)cc2)CC1` (stereo not drawn) [LLS86, 3-(1-(3,4-dichlorobenzyl)-2-(4-(4-methylpiperazin-1-yl)phenyl)-1H-benzo[d]imidazol-5-yl)-3-((3,4-dichlorobenzyl)amino)propanamide], in assay [1], the viability at 2.5 µM turned out to be 45%, the viability at 5 µM stood at 0% and the viability at 10 µM was 0%.

As for `NC(=O)CC(NCC1CCCCC1)c1ccc2c(c1)nc(-c1ccc(N(CCO)CCO)cc1)n2Cc1ccc(Cl)c(Cl)c1` (stereo not drawn) [LLS101, 3-(2-(4-(bis(2-hydroxyethyl)amino)phenyl)-1-(3,4-dichlorobenzyl)-1H-benzo[d]imidazol-5-yl)-3-((cyclohexylmethyl)amino)propanamide], in assay [1], the viability at 2.5 µM amounted to 20%, the viability at 5 µM was determined as 1% and the viability at 10 µM was 0%.

Consider `NC(=O)CC(NCc1ccc(Cl)c(Cl)c1)c1ccc2c(c1)nc(-c1ccc(N(CCO)CCO)cc1)n2Cc1ccc2c(c1)OCO2` (stereo not drawn) [LLS106, 3-(1-(benzo[d][1,3]dioxol-5-ylmethyl)-2-(4-(bis(2-hydroxyethyl)amino)phenyl)-1H-benzo[d]imidazol-5-yl)-3-((3,4-dichlorobenzyl)amino)propanamide], for which, in assay [1], the viability at 2.5 µM turned out to be 30%, the viability at 5 µM is 2% and the viability at 10 µM was determined as 0%.

With `CN(C)CCCOc1ccc(-c2nc3cc(C(CC(N)=O)NCC4CCCCC4)ccc3n2Cc2ccc(OC(F)(F)F)cc2)cc1` (stereo not drawn) [LLS89, 3-((cyclohexylmethyl)amino)-3-(2-(4-(3-(dimethylamino)propoxy)phenyl)-1-(4-(trifluoromethoxy)benzyl)-1H-benzo[d]imidazol-5-yl)propanamide], in assay [1], the viability at 2.5 µM came to 1%, the viability at 5 µM is 0% and the viability at 10 µM is 0%.

As to `NC(=O)CC(NCc1ccncc1)c1ccc2c(c1)nc(-c1ccc(N(CCO)CCO)cc1)n2Cc1ccc(Cl)c(Cl)c1` (stereo not drawn) [LLS84, 3-(2-(4-(bis(2-hydroxyethyl)amino)phenyl)-1-(3,4-dichlorobenzyl)-1H-benzo[d]imidazol-5-yl)-3-((pyridin-4-ylmethyl)amino)propanamide], in assay [1], the viability at 2.5 µM was 119%, the viability at 5 µM came out at 109% and the viability at 10 µM was determined as 138%.

Turning to `NC(=O)CC(NCC1CCCCC1)c1ccc2c(c1)nc(-c1ccc(N3CCOCC3)cc1)n2Cc1ccc(Cl)c(C(F)(F)F)c1` (stereo not drawn) [LLS98, 3-(1-(4-chloro-3-(trifluoromethyl)benzyl)-2-(4-morpholinophenyl)-1H-benzo[d]imidazol-5-yl)-3-((cyclohexylmethyl)amino)propanamide], in assay [1], the viability at 2.5 µM turned out to be 40%, the viability at 5 µM is 0% and the viability at 10 µM was 0%.

Regarding `NC(=O)CC(NCc1ccc(Cl)c(Cl)c1)c1ccc2c(c1)nc(-c1ccc(N(CCO)CCO)cc1)n2CC1CCCCC1` (stereo not drawn) [LLS104, 3-(2-(4-(bis(2-hydroxyethyl)amino)phenyl)-1-(cyclohexylmethyl)-1H-benzo[d]imidazol-5-yl)-3-((3,4-dichlorobenzyl)amino)propanamide], in assay [1], the viability at 2.5 µM amounted to 82%, the viability at 5 µM worked out at 31% and the viability at 10 µM was found to be 1%.

As to `NC(=O)CC(NCC1CCCCC1)c1ccc2c(c1)nc(-c1ccc(N3CCOCC3)cc1)n2Cc1ccc(C(F)(F)F)c(F)c1` (stereo not drawn) [LLS96, 3-((cyclohexylmethyl)amino)-3-(1-(3-fluoro-4-(trifluoromethyl)benzyl)-2-(4-morpholinophenyl)-1H-benzo[d]imidazol-5-yl)propanamide], in assay [1], the viability at 2.5 µM was determined as 45%, the viability at 5 µM came out at 0% and the viability at 10 µM came to 0%.

`NC(=O)CC(NCc1ccc(Cl)c(Cl)c1)c1ccc2c(c1)nc(-c1ccc(N(CCO)CCO)cc1)n2Cc1cccc2ccccc12` (stereo not drawn) [LLS102, 3-(2-(4-(bis(2-hydroxyethyl)amino)phenyl)-1-(naphthalen-1-ylmethyl)-1H-benzo[d]imidazol-5-yl)-3-((3,4-dichlorobenzyl)amino)propanamide]: in assay [1], the viability at 2.5 µM was found to be 23%, the viability at 5 µM worked out at 0% and the viability at 10 µM worked out at 0%.

Consider `NC(=O)CC(NCc1ccc(Cl)c(Cl)c1)c1ccc2c(c1)nc(-c1cccc(OCCN3CCOCC3)c1)n2Cc1ccc(Cl)c(Cl)c1` (stereo not drawn) [LLS87, 3-(1-(3,4-dichlorobenzyl)-2-(3-(2-morpholinoethoxy)phenyl)-1H-benzo[d]imidazol-5-yl)-3-((3,4-dichlorobenzyl)amino)propanamide], for which, in assay [1], the viability at 2.5 µM is 76%, the viability at 5 µM came out at 56% and the viability at 10 µM was 0%.

Regarding `NC(=O)CC(NCc1ccc(Cl)c(Cl)c1)c1ccc2c(c1)nc(-c1ccc(N(CCO)CCO)cc1)n2Cc1ccc(C(F)(F)F)cc1` (stereo not drawn) [LLS92, 3-(2-(4-(bis(2-hydroxyethyl)amino)phenyl)-1-(4-(trifluoromethyl)benzyl)-1H-benzo[d]imidazol-5-yl)-3-((3,4-dichlorobenzyl)amino)propanamide], in assay [1], the viability at 2.5 µM is 74%, the viability at 5 µM amounted to 15% and the viability at 10 µM was found to be 1%.

As for `NC(=O)CC(NCC1CCCCC1)c1ccc2c(c1)nc(-c1ccc(N3CCOCC3)cc1)n2Cc1cccc2ccccc12` (stereo not drawn) [LLS103, 3-((cyclohexylmethyl)amino)-3-(2-(4-morpholinophenyl)-1-(naphthalen-1-ylmethyl)-1H-benzo[d]imidazol-5-yl)propanamide], in assay [1], the viability at 2.5 µM is 1%, the viability at 5 µM amounted to 0% and the viability at 10 µM amounted to 0%.

`NC(=O)CC(NCc1ccc(Cl)c(Cl)c1)c1ccc2c(c1)nc(-c1ccc(N(CCO)CCO)cc1)n2CCc1ccc(OC(F)(F)F)cc1` (stereo not drawn) [LLS100]: in assay [1], the viability at 2.5 µM worked out at 99%, the viability at 5 µM was 28% and the viability at 10 µM turned out to be 0%.

Consider `NC(=O)CC(NCC1CCCCC1)c1ccc2c(c1)nc(-c1ccc(N3CCOCC3)cc1)n2Cc1ccc2c(c1)OCO2` (stereo not drawn) [LLS107, 3-(1-(benzo[d][1,3]dioxol-5-ylmethyl)-2-(4-morpholinophenyl)-1H-benzo[d]imidazol-5-yl)-3-((cyclohexylmethyl)amino)propanamide], for which, in assay [1], the viability at 2.5 µM worked out at 67%, the viability at 5 µM amounted to 4% and the viability at 10 µM was 0%.

With `CC(=O)OCCN(CCO)c1ccc(-c2nc3cc(C(CC(N)=O)NCc4ccc(-c5ccn[nH]5)s4)ccc3n2CCCN(C)C)cc1` (stereo not drawn) [LLS66, 2-((4-(5-(1-(((5-(1H-pyrazol-5-yl)thiophen-2-yl)methyl)amino)-3-amino-3-oxopropyl)-1-(3-(dimethylamino)propyl)-1H-benzo[d]imidazol-2-yl)phenyl)(2-hydroxyethyl)amino)ethyl Acetate], in assay [2], the viability at 2.5 µM was 98%, the viability at 5 µM stood at 91%, the viability at 10 µM was 89% and the viability at 20 µM came to 79%.

Regarding `CC(=O)OCCN(CCOC(C)=O)c1ccc(-c2nc3cc(C(CC(N)=O)NCc4ccc(-c5ccncc5)cc4)ccc3n2CCCn2ccnc2)cc1` (stereo not drawn) [LLS58Ac, ((4-(1-(3-(1H-imidazol-1-yl)propyl)-5-(3-amino-3-oxo-1-((4-(pyridin-4-yl)benzyl)amino)propyl)-1H-benzo[d]imidazol-2-yl)phenyl)azanediyl)bis(ethane-2,1-diyl) Diacetate], in assay [2], the viability at 2.5 µM was 100%, the viability at 5 µM amounted to 98%, the viability at 10 µM was determined as 91% and the viability at 20 µM was determined as 83%.

For `NCCn1c(-c2ccc(N(CCO)CCO)cc2)nc2cc(C(CC(N)=O)NCc3ccc(Br)s3)ccc21` (stereo not drawn) [LLS45, 3-(1-(2-aminoethyl)-2-(4-(bis(2-hydroxyethyl)amino)phenyl)-1H-benzo[d]imidazol-5-yl)-3-(((5-bromothiophen-2-yl)methyl)amino)propanamide], in assay [2], the viability at 2.5 µM came to 92%, the viability at 5 µM amounted to 102%, the viability at 10 µM came out at 118% and the viability at 20 µM came to 117%.
